Results published in article PMC10251477, “Doubly Constrained C-terminal of Roc (COR) Domain-Derived Peptides Inhibit Leucine-Rich Repeat Kinase 2 (LRRK2) Dimerization” (ACS Chemical Neuroscience, 2023).
Several values for one entry are separate records, joined by “and”; a condition that tells them apart may be missing. Equal entries are not always repeated. Bridge positions count the residues as written; N and C are the ends. Square brackets hold non-standard residues; d marks the D form. Peptide text beside a SMILES is read from it. * marks the point of attachment. 5FAM = O=C1OC2(c3ccc(O)cc3Oc3cc(O)ccc32)c2ccc(C(=O)*)cc21; S5 = C=CCCC[C@](C)(N)C(=O)O; AEEEA = NCCOCCOCCOCC(=O)O

Assays:
MBP-tagged RocCOR LRRK2 = target: T1, MBP-tagged RocCOR LRRK2 (Homo sapiens, UniProt Q5S007); assay: Fluorescence polarization (FP) binding assay, wild-type RocCOR; conditions: 10 nM FAM-labeled doubly stapled peptide, wild-type RocCOR 5 μM to 1 nM, 2 mM GTP, 10 mM MgCl2, 20 mM MOPS pH 7, 150 mM NaCl, 0.005% CHAPS, room temperature, 2 h, triplicate
T1 sequence (Q5S007 1328-1840 limits assumed): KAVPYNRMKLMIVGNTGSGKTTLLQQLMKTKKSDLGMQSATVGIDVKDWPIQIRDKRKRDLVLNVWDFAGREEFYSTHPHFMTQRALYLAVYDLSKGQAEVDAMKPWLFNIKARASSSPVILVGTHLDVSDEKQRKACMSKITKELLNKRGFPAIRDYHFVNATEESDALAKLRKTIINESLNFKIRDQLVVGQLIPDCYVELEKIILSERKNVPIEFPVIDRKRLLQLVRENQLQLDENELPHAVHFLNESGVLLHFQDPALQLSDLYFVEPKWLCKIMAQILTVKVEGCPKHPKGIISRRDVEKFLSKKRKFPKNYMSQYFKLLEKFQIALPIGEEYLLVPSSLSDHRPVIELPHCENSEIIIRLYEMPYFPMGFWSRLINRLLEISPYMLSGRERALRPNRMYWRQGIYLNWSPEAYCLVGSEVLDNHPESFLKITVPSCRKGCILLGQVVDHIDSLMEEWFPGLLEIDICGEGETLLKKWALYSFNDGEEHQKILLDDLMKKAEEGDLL
Description: Fluorescence polarization assays were conducted on the lead doubly constrained compounds (ECOR and ECOR A12G) with two separate LRRK2 protein constructs: MBP-tagged RocCOR LRRK2 and MBP-tagged R1441C RocCOR LRRK2, both in the presence of 2 mM GTP and 10 mM MgCl2. Protein/peptide interactions were measured in a FP buffer (20 mM MOPS, pH 7, 150 mM NaCl, and 0.005% CHAPS) at room temperature. FAM-labeled peptides were plated in 384-well microtiter plates at a final concentration of 10 nM. Proteins were added over concentrations ranging from 5 μM to 1 nM. Each protein/peptide interaction experiment was carried out at 10 different protein concentrations in triplicate. Each protein/peptide mixture was incubated at room temperature for 2 h and the final reading was performed at the end of this 2 h period.

in vitro = in vitro ADME; conditions: human, cells or culture medium
Description: Fully confluent HEK293 cells were lysed using ice-cold nondenaturing lysis buffer (20 mM Tris HCL, pH 8.0, 137 mM NaCl, 1% Triton X-100, 2 mM EDTA) and incubated for 30 min at 4 °C. Cells were centrifuged for 20 min at 12 000 rpm, and the supernatant was collected and kept on ice. […] Experiments were conducted at 37 °C with agitation for 0, 2, 4, and 6 h. Aliquots were collected and quenched at each indicated time point using an equal volume of 0.1% trifluoroacetic acid (TFA) in acetonitrile. This solution was then centrifuged at 14 000 rpm for 5 min, and the supernatant was used for analysis. Peptide degradation was analyzed on LC-MS using a Zorbax Eclipse XDB-C18 column as a ratio of peptide to control relative to peptide at t = 0 at 280 nm. A flow rate of 1.0 mL/min at 45 °C was used with a 0–100% water/acetonitrile gradient containing 0.1% TFA. Each individual peptide was analyzed in triplicate for each time point.

[1] = target: T2, LRRK2 G2019S homodimers in HEK293T cells (Homo sapiens, UniProt Q5S007, G2019S); assay: Proximity biotinylation of dimeric LRRK2 in cells; format: cell-based; conditions: FAM-labeled peptide 0.5–2.5 μM, 48 h treatment, ELISA of biotinylated LRRK2 normalized to total LRRK2, biological triplicates
T2 construct: expressed in transfected cells; host or cells: HEK293T
T2 sequence (Q5S007 whole entry G2019S): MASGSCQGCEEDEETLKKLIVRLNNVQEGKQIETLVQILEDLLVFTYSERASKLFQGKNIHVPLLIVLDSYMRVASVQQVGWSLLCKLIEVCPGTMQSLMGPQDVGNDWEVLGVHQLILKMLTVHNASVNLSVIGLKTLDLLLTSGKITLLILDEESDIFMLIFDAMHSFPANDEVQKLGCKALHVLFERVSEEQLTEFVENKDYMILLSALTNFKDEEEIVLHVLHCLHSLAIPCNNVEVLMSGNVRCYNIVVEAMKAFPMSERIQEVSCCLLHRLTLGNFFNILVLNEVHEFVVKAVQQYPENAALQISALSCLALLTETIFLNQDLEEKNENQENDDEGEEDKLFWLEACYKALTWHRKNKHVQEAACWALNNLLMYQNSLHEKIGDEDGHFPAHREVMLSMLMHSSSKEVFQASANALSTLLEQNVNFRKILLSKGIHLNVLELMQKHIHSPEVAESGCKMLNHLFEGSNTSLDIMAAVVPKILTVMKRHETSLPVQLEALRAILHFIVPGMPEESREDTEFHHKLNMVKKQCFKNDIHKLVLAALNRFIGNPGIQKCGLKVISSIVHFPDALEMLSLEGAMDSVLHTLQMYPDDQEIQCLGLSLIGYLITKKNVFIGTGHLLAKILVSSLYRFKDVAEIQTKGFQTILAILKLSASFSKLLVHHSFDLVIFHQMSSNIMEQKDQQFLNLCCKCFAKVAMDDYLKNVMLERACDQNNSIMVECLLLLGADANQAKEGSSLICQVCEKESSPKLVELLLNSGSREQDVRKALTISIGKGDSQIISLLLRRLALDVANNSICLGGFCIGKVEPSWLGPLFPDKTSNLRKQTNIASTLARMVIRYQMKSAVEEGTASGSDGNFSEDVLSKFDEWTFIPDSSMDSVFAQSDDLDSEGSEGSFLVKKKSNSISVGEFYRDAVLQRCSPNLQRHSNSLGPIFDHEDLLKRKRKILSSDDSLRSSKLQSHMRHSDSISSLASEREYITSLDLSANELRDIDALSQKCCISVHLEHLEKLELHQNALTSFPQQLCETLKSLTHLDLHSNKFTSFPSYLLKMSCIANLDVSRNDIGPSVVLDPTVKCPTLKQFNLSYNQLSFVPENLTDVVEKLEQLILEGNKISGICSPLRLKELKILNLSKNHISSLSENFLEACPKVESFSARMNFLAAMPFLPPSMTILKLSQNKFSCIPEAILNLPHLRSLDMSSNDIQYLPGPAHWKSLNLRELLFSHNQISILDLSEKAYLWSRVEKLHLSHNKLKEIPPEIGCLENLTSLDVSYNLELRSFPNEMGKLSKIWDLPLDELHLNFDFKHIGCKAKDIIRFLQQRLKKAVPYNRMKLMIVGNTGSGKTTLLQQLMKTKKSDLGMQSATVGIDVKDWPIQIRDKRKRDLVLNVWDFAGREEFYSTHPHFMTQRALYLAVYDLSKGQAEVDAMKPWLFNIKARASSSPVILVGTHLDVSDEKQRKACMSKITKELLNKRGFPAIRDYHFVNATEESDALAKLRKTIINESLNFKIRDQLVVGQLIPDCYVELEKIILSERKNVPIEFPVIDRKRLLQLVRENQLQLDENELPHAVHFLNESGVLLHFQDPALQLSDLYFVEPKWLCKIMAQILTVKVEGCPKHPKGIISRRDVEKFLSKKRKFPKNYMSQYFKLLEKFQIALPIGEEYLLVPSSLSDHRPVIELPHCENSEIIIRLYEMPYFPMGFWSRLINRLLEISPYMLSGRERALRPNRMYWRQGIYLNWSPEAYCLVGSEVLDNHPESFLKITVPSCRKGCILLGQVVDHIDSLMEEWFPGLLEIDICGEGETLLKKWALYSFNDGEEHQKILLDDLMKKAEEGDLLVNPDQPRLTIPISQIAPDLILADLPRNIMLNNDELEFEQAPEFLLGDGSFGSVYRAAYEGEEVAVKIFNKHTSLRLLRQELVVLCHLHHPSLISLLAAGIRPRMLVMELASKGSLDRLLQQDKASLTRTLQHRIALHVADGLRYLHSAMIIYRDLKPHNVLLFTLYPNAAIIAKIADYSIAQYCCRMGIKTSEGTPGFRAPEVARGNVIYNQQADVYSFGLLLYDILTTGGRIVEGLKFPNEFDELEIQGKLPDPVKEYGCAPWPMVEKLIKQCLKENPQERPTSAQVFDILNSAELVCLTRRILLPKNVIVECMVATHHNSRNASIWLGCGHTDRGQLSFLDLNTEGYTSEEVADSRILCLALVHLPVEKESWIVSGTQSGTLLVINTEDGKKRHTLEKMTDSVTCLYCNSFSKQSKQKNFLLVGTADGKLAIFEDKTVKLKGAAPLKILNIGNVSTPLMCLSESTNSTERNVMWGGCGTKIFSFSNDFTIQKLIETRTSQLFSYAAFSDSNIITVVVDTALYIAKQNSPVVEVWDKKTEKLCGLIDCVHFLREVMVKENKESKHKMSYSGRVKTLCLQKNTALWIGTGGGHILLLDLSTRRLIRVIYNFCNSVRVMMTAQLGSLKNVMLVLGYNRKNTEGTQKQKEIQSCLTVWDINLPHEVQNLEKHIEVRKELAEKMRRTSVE
Description: LRRK2 dimerization was assessed using either wild-type LRRK2 homodimers or LRRK2 G2019S homodimers. Experiments were carried out using various concentrations (0.5, μM, 1 μM, or 2.5 μM) of FAM-labeled ECOR or ECOR […]. The LRRK2 dimers used were purified as previously described.[18] To generate these dimers, two cDNAs encoding LRRK2 fusions with biotin ligase (BirA; N-term, Flag-tagged) or an acceptor peptide (AP, N-term; c-Myc tagged) were created. These constructs were expressed in HEK293T cells grown in biotin-depleted medium (OptiMEM+2% FBS). FAM-labeled ECO[…] and ECO[…] were diluted in serum-free medium and added 24 h after transfection. 48 h following the initial treatment (after 72 h of total expression), cells were washed in PBS, given a brief biotin pulse (50 μM, 5 min, 37 °C), washed three more times in PBS, and centrifuged. The cell pellet was snap frozen in a dry ice/methanol bath and stored at -80 °C until analysis. […] Protein-bound SA coated plates were incubated with HRP-conjugated anti-Flag antibodies for 1 h at room temperature to quantify dimeric LRRK2. Total LRRK2 overexpression was quantified using HRP-conjugated LRRK2 antibody (clone N241) on the parallel anti-LRRK2 coated plates (precoated with anti-LRRK2, clone c41-2) and was used to normalize dimeric LRRK2 content. […]

[2] = system: LRRK2 substrate Rab10 (phospho-T73) in A549 PPM1H knockout cells; assay: Rab10 phosphorylation immunoblotting (LRRK2 kinase activity); format: cell-based; conditions: Western blot; for downregulation of Rab10 phosphorylation: 1 μM and 2.5 μM peptide (both concentrations), 6 h, pRab10 T73 over total Rab10, normalized to GAPDH and untreated control
Description: A549 PPM1H knockout cells were treated with 1 μM and 2.5 μM of doubly constrained peptide for 6 h. Cells treated with 1 μM MLi-2 were used as a positive control. Cell lysates were separated by SDS-PAGE and transferred to PVDF membranes by wet transfer. pRab10 T73 and total Rab10 signals were blotted on different membranes with GAPDH as a loading control on the same membrane to save the membrane from the stripping step. The membranes were blocked in nonfat milk and probed with Rab10 (phospho-T73) (Abcam; ab241060, Lot; GR327 4620-4), total Rab10 (Cell Signaling Technology; #4262S), and total GAPDH (14C10) (Cell Signaling Technology; #2118S) antibodies overnight at 4 °C, followed by incubation with HRP anti-rabbit secondary antibody, and developed using ECL. The blots were quantified using Image Studio Lite version 5.2 by selecting the bands to obtain the intensity for each band. The phospho-Rab10, total Rab10, and GAPDH signal for every sample were normalized to its untreated control for the same day. The phospho-Rab10 and total Rab10 signal was further normalized to the GAPDH signal (loading control) on the same blot. The graph was plotted with GAPDH normalized phospho-Rab10 signal over total Rab10 signal for every sample (*normalized to untreated sample). [drawing 1]

[3] = system: GFP-LRRK2 in HEK293 cells; assay: LRRK2 microtubule localization assay in live cells; format: cell-based; conditions: HEK293 cells overexpressing GFP-LRRK2 24 h, 37 °C, SiR-tubulin stain, live imaging
Description: HEK293 cells were transfected with GFP–LRRK2 for 24 h and subsequently treated with DMSO, 1 μM MLi-2, and 2.5 μM ECOR or ECOR A12G peptide for 6 h at 37 °C. The transfected cells were scored single-blinded for skein-like filamentous structures per condition. For tubulin staining, after a 6 h incubation with DMSO, MLi-2, or biotin-labeled peptides, the media was replaced with media containing 1 μM SiR-tubulin (Spirochrome SiR-tubulin Kit (SC002)) and 10 μM verapamil (a broad spectrum efflux pump inhibitor) for 1 h at 37 °C. Live cells were imaged using the 63× oil-immersion objective of a Zeiss LSM800 confocal laser scanning microscope. The Zeiss microscope software ZEN was used to generate channel overlays.

[4] = system: primary cortical neurons expressing LRRK2 G2019S; assay: Neuronal apoptosis in primary cortical neurons; format: cell-based; conditions: primary cortical neurons (E16 C57BL mice) transfected with Flag-LRRK2 G2019S; 0.5–1 μM peptide, 48 h; % Flag-positive neurons with apoptotic nuclei; three biological replicates
Description: Neurons were then transfected using Lipofectamine 2000 with Flag-tagged WT LRRK2 or G2019S LRRK2. The following day, neurons were treated with 0.5 μM and 1 μM of both ECO[…] and ECO[…] for 48 h. Cells were washed in PBS and fixed in 3.7% paraformaldehyde for 20 min at 4 °C prior to antibody treatments. Images were analyzed and quantifications were performed as previously described.[30] For the determination of apoptotic neuronal death, fixed and stained neurons were visualized under a 40× magnification objective (dry). On each coverslip, a minimum of 100 Flag-positive neurons were identified and the percentage of those with apoptotic profiles was determined. Apoptotic nuclei were defined as neurons having condensed chromatin, fragmented into at least 2 or more “apoptotic bodies”.

[5] = target: T3, purified full-length LRRK2 dimer (Homo sapiens, UniProt Q5S007); assay: Mass photometry assay of LRRK2 dimerization; format: biochemical; conditions: LRRK2 at 75 nM and 100 nM, 7.5-fold excess of peptide, 30 min, 30 °C, three measurements
T3 construct: Purified full-length LRRK2 was incubated for 30 min; made in house
T3 sequence (Q5S007 whole entry): as the sequence (Q5S007 whole entry G2019S) above, with S2019G counted along it
Description: LRRK2 was purified as previously described.[30] LRRK2 was diluted to a concentration of 150 nM or 200 nM and incubated with constrained peptide in a 1:7.5 ratio, for 30 min at 30 °C. Mass photometry was performed on a Refeyn Two^MP instrument.[30] The instrument was first focused with 10 μL of buffer (50 mM HEPES, 150 mM NaCl, 5 mM MgCl2, 1 mM DTT, 0.1 mM GDP, and 1% glycerol) after which 10 μL of the incubated LRRK2 solution was added. The samples were recorded for 1 min. Three measurements were processed for each condition, and the data were analyzed by GraphPad Prism.

[6] = 2.5 μM biotin-labeled peptide, 6 h, minimum 500 cells scored

Structure (SMILES)	Kd (MBP-tagged RocCOR LRRK2)	remaining at 6 h, 0.2 mM (in vitro)	downregulation of intracellular LRRK2 G2019S dimerization [1]	downregulation of Rab10 phosphorylation [2]	localization of LRRK2 to microtubules as filamentous skein-like structures [3, 6]	reduction of cortical neuronal apoptosis [4]	inhibition of LRRK2 dimer formation [5]	inhibition of Rab10 phosphorylation ([2]; 1 μM MLi-2 (positive control))	localization of LRRK2 to microtubules as filamentous skein-like structures ([3]; 1 μM MLi-2, 6 h)
CC(C)C[C@H](NC(=O)[C@H](CCCCN)NC(=O)[C@]1(C)CCCC=CCCC[C@](C)(NC(=O)[C@H](Cc2c[nH]cn2)NC(=O)[C@H](CCCCN)NC(=O)[C@H](CCC(=O)O)NC(=O)CNC(=O)[C@H](CC(=O)O)NC(=O)[C@H](CC(N)=O)NC(=O)[C@H](Cc2ccccc2)NC(=O)[C@H](CO)NC(=O)[C@H](Cc2ccc(O)cc2)NC(=O)[C@H](CC(C)C)NC(=O)[C@H](C)NC(=O)[C@H](Cc2c[nH]c3ccccc23)NC(=O)[C@]2(C)CCCC=CCCC[C@](C)(NC(=O)[C@H](CCC(=O)O)NC(=O)CNC(=O)[C@H](CCC(=O)O)NC(=O)CNC(=O)[C@H](CCCCN)NC(=O)COCCOCCOCCNC(=O)c3ccc4c(c3)C(=O)OC43c4ccc(O)cc4Oc4cc(O)ccc43)C(=O)N[C@@H](CC(C)C)C(=O)N[C@@H](CC(C)C)C(=O)N[C@@H](CCCCN)C(=O)N2)C(=O)N[C@@H](CCCCN)C(=O)N[C@@H](CCCCN)C(=O)N[C@@H](CC(C)C)C(=O)N1)C(N)=O [ECOR] ({5FAM-AEEEA}-KGEGE[S5]LLK[S5]WALYSFNDGEKH[S5]KKL[S5]KL-NH2; staple 6-10, 23-27)	45 to 60 nM and 45 nM	> 80%	50–60%	not found to have measurable effects	no significant localization	over 50%	–	–	–
CC(C)C[C@H](NC(=O)[C@H](CCCCN)NC(=O)[C@]1(C)CCCC=CCCC[C@](C)(NC(=O)[C@H](Cc2c[nH]cn2)NC(=O)[C@H](CCCCN)NC(=O)[C@H](CCC(=O)O)NC(=O)CNC(=O)[C@H](CC(=O)O)NC(=O)[C@H](CC(N)=O)NC(=O)[C@H](Cc2ccccc2)NC(=O)[C@H](CO)NC(=O)[C@H](Cc2ccc(O)cc2)NC(=O)[C@H](CC(C)C)NC(=O)CNC(=O)[C@H](Cc2c[nH]c3ccccc23)NC(=O)[C@]2(C)CCCC=CCCC[C@](C)(NC(=O)[C@H](CCC(=O)O)NC(=O)CNC(=O)[C@H](CCC(=O)O)NC(=O)CNC(=O)[C@H](CCCCN)NC(=O)COCCOCCOCCNC(=O)c3ccc4c(c3)C(=O)OC43c4ccc(O)cc4Oc4cc(O)ccc43)C(=O)N[C@@H](CC(C)C)C(=O)N[C@@H](CC(C)C)C(=O)N[C@@H](CCCCN)C(=O)N2)C(=O)N[C@@H](CCCCN)C(=O)N[C@@H](CCCCN)C(=O)N[C@@H](CC(C)C)C(=O)N1)C(N)=O [ECOR A12G] ({5FAM-AEEEA}-KGEGE[S5]LLK[S5]WGLYSFNDGEKH[S5]KKL[S5]KL-NH2; staple 6-10, 23-27)	45 to 60 nM and 57 nM	> 80%	50–60%	~40%	no significant localization	over 50%	strongest dimer inhibition	–	–
C[C@@H]1CN(c2cc(-c3n[nH]c4ccc(OC5(C)CC5)cc34)ncn2)C[C@H](C)O1 [MLi-2, reference compound]	–	–	–	–	–	–	–	nearly completely inhibited	considerable colocalization with tubulin
